Laboratory results taken from US11370774B2, “Substituted benzofuran, benzopyrrole, benzothiophene, and structurally related complement inhibitors” (BioCryst Pharmaceuticals, Inc., priority 2018, dated 2022).

Biological target: Factor D (Homo sapiens (Human), UniProt P00746)
Experiment: Factor D esterolytic assay (Z-Lys-SBzl substrate, DTNB, 405 nm)
Assay type: biochemical
Settings: Z-Lys-SBzl 1.29 mM, pH 7.5, 10% DMSO, tested a minimum of three times, read-out: Measured Ki (IC50) Value for Compounds: IC50
Summary of the method: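 Thioester hydrolysis (Z-Lys-SBzl, 1.29 mM) by human Factor D ([…]) detected through DTNB color at 405 nm over 600 sec, minus 690 nm background. Buffer: 100 mM HEPES pH 7.5, 500 mM NaCl, 10% DMSO; optional room-temperature preincubation before substrate. IC50 derived from percent rate inhibition; at least three runs.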

Sequence of Factor D (P00746 26-253): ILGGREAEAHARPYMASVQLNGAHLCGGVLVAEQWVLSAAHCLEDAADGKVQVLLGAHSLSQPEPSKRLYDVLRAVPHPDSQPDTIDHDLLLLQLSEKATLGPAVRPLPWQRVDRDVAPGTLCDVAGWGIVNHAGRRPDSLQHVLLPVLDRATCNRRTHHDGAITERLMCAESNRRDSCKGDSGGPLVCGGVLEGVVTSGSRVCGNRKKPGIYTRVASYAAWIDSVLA

IC50, < 1000 nM:
COc1cccc(CC(=O)O)c1OCc1cc(-c2ccnc(CN)c2)c2occc2c1 [Compound 512d, 2-(2-((7-(2-(aminomethyl)pyridin-4-yl)benzofuran-5-yl)methoxy)-3-methoxyphenyl)acetic acid]
CC(C)n1ccc2c(-c3ccnc(CN)c3F)cc(COc3ccc(F)cc3CC(=O)O)cc21 [Compound 513c, 2-(2-((4-(2-(aminomethyl)-3-fluoropyridin-4-yl)-1-isopropyl-1H-indol-6-yl)methoxy)-5-fluorophenyl)acetic acid]
COCc1cc2cc(COc3cc(F)ccc3CC(=O)O)cc(-c3ccnc(CN)c3F)c2o1 [Compound 514d, 2-(2-((7-(2-(aminomethyl)-3-fluoropyridin-4-yl)-2-(methoxymethyl)benzofuran-5-yl)methoxy)-4-fluorophenyl)acetic acid]
COCc1cc2cc(COc3cc(F)ccc3CC(=O)O)cc(-c3ccnc(CN)c3)c2o1 [Compound 515c, 2-(2-((7-(2-(aminomethyl)pyridin-4-yl)-2-(methoxymethyl)benzofuran-5-yl)methoxy)-4-fluorophenyl)acetic acid]
NCc1cccc(-c2c(F)c(COc3ccccc3CC(=O)O)cc3ccoc23)c1F [Compound 516c, 2-(2-((7-(3-(aminomethyl)-2-fluorophenyl)-6-fluorobenzofuran-5-yl)methoxy)phenyl)acetic acid]
NCc1cccc(-c2cc(COc3ccccc3CC(=O)O)cc3c2ccn3C(F)(F)F)c1 [Compound 517d, 2-(2-((4-(3-(aminomethyl)phenyl)-1-(trifluoromethyl)-1H-indol-6-yl)methoxy)phenyl)acetic acid]
NCc1cccc(-c2cc(COc3ccccc3CC(=O)O)cc3c2ccn3C(F)(F)F)c1F [Compound 518b, 2-(2-((4-(3-(aminomethyl)-2-fluorophenyl)-1-(trifluoromethyl)-1H-indol-6-yl)methoxy)phenyl)acetic acid]
NCc1cc(-c2c(F)c(COc3ccccc3CC(=O)O)cc3ccoc23)ccn1 [Compound 519c, 2-(2-((7-(2-(aminomethyl)pyridin-4-yl)-6-fluorobenzofuran-5-yl)methoxy)phenyl)acetic acid]
NCc1cccc(-c2cc(COc3cc(F)ccc3CC(=O)O)cc3cc(F)oc23)c1 [Compound 520c, 2-(2-((7-(3-(aminomethyl)phenyl)-2-fluorobenzofuran-5-yl)methoxy)-4-fluorophenyl)acetic acid]
NCc1cccc(-c2cc(COc3cc(F)ccc3CC(=O)O)cc3cc(F)oc23)c1F [Compound 521b, 2-(2-((7-(3-(aminomethyl)-2-fluorophenyl)-2-fluorobenzofuran-5-yl)methoxy)-4-fluorophenyl)acetic acid]
NCc1nccc(-c2cc(COc3cc(F)ccc3CC(=O)O)cc3cc(F)oc23)c1F [Compound 522c, 2-(2-((7-(2-(aminomethyl)-3-fluoropyridin-4-yl)-2-fluorobenzofuran-5-yl)methoxy)-4-fluorophenyl)acetic acid]
NCc1cc(-c2cc(COc3cc(F)ccc3CC(=O)O)cc3cc(F)oc23)ccn1 [Compound 523b, 2-(2-((7-(2-(aminomethyl)pyridin-4-yl)-2-fluorobenzofuran-5-yl)methoxy)-4-fluorophenyl)acetic acid]
Cc1ccc(CC(=O)O)c(OCc2cc(-c3cccc(CN)c3F)c3oc(F)cc3c2)c1 [Compound 524b, 2-(2-((7-(3-(aminomethyl)-2-fluorophenyl)-2-fluorobenzofuran-5-yl)methoxy)-4-methylphenyl)acetic acid]
Cc1ccc(CC(=O)O)c(OCc2cc(-c3ccnc(CN)c3F)c3oc(F)cc3c2)c1 [Compound 525c, 2-(2-((7-(2-(aminomethyl)-3-fluoropyridin-4-yl)-2-fluorobenzofuran-5-yl)methoxy)-4-methylphenyl)acetic acid]
Cc1ccc(CC(=O)O)c(OCc2cc(-c3ccnc(CN)c3)c3oc(F)cc3c2)c1 [Compound 526b, 2-(2-((7-(2-(aminomethyl)pyridin-4-yl)-2-fluorobenzofuran-5-yl)methoxy)-4-methylphenyl)acetic acid]
COc1cccc(CC(=O)O)c1OCc1cc(-c2ccnc(CN)c2F)c2occc2c1 [Compound 527b, 2-(2-((7-(2-(aminomethyl)-3-fluoropyridin-4-yl)benzofuran-5-yl)methoxy)-3-methoxyphenyl)acetic acid]
COCc1cc2cc(COc3ccc(F)cc3CC(=O)O)cc(-c3ccnc(CN)c3F)c2o1 [Compound 528d]
COCc1cc2cc(COc3ccc(F)cc3CC(=O)O)cc(-c3ccnc(CN)c3)c2o1 [Compound 529b, 2-(2-((7-(2-(aminomethyl)pyridin-4-yl)-2-(methoxymethyl)benzofuran-5-yl)methoxy)-5-fluorophenyl)acetic acid]
COCc1cc2cc(COc3cc(C(C)=O)ccc3CC(=O)O)cc(-c3ccnc(CN)c3F)c2o1 [Compound 530c, 2-(4-acetyl-2-((7-(2-(aminomethyl)-3-fluoropyridin-4-yl)-2-(methoxymethyl)benzofuran-5-yl)methoxy)phenyl)acetic acid]
NCc1nccc(-c2c(F)c(COc3ccccc3CC(=O)O)cc3ccoc23)c1F [Compound 531c, 2-(2-((7-(2-(aminomethyl)-3-fluoropyridin-4-yl)-6-fluorobenzofuran-5-yl)methoxy)phenyl)acetic acid]
NCc1cc(-c2cc(COc3ccccc3CC(=O)O)cc3c2ccn3C(F)(F)F)ccn1 [Compound 532d, 2-(2-((4-(2-(aminomethyl)pyridin-4-yl)-1-(trifluoromethyl)-1H-indol-6-yl)methoxy)phenyl)acetic acid]
NCc1nccc(-c2cc(COc3ccccc3CC(=O)O)cc3c2ccn3C(F)(F)F)c1F [Compound 533c, 2-(2-((4-(2-(aminomethyl)-3-fluoropyridin-4-yl)-1-(trifluoromethyl)-1H-indol-6-yl)methoxy)phenyl)acetic acid]
